{"source": "patent US20090304763A1", "about": "“Insect Attractant Composition” (priority 2006, published 2009)", "key": {"mosquitoes": {"test_system": "mosquitoes", "experiment": "test comparing acetone alone versus composition: share of available mosquitoes lured", "assay_type": "in vivo", "conditions": "one test; acetone alone versus composition containing acetone, lactic acid and the fatty acid"}, "[1]": {"experiment": "surface energy of water with added acetone", "assay_type": "physicochemical", "conditions": "5% addition of acetone to water; water alone 73 dynes/cm", "source_text": "While the C3-C12 ketones used in the composition are insufficient by themselves to act as an insect attractant; they provide other valuable properties to the composition. In particular, small-chain ketones have the ability to act as surface-active agents and thus provide the composition with a more consistent droplet diameter and a lower surface energy when the liquid composition is released. For instance, a 5% addition of acetone to water can reduce water surface energy from 73 dynes/cm to 56 dynes/cm. While not wishing to be bound by this theory, it is believed that producing a composition with a consistent and smaller diameter size provides a better presentation to the antennae of the flying insects."}}, "data": [{"smiles": "CC(C)=O", "note": "[acetone alone, acetone]", "values": [{"measurement": "average of all available mosquitoes lured", "setting": "mosquitoes", "value": 6.7, "unit": "%"}, {"measurement": "water surface energy", "setting": "[1]", "value": 56, "unit": "dynes/cm"}]}]}
